Assay results as given in patent US9340577B2, “HLA binding motifs and peptides and their uses” (priority 1992, dated 2016).
pIC50: −log10 of the molar value. Read-outs that look alike come from different tables or passages of the source. No end group written: not given here.

Columns and labels:
Assay in all cases: biochemical
[1] = target: DR1 (DRB1*0101) (Homo sapiens, UniProt P01903+P01911, A100R/D57E/F55L/F60I/F76Y/I96L/L162R/M171V/P40L/Q125E/R42F/V115G/Y59C); type: binding
[2] = target: DR7 (DRB1*0701) (Homo sapiens, UniProt P01903+P01911, A100R/A102G/A103Q/D57E/D86V/E43K/F76Y/K127E/L162R/M171V/P40G/Q125H/Q99D/R33Q/R42Y/R54Q/S133A/S66F/T210M/V115G/Y107V/Y59L/Y89S); type: binding
[3] = target: DRB1*0405 (Homo sapiens, UniProt P01903+P01911, A100R/A169T/D86S/F76Y/I96L/K127E/L162R/M171V/N62H/P40V/Q125Y/R42H/S133A/S149N/S66Y/V115G/V209L/W38E); type: binding
[4] = target: DRB1*0802 (Homo sapiens, UniProt P01903+P01911, A100R/A103L/A169T/F76Y/H45Y/I96F/K41T/L162R/M171V/P40S/Q125H/Q178H/Q39Y/Q99D/R218S/R42G/S66Y/V115G/W38E); type: binding
[5] = target: DRB1*0901 (Homo sapiens, UniProt P01903+P01911, A100R/A103E/D57H/D86V/F55Y/F60I/F76Y/I96F/K127E/L162R/M171V/P40D/Q125H/Q99R/R33Q/R42F/S133A/S66N/T210M/V115G/W38K/Y107V/Y59G/Y89S); type: binding
[6] = target: DRB1*1302 (Homo sapiens, UniProt P01903+P01911, A100E/A169T/K41T/L162R/M171V/P40S/Q125H/Q178H/Q39Y/Q99D/R42S/S66N/T262R/V115G/W38E/Y61H); type: binding
[7] = target: DRB1*1501 (Homo sapiens, UniProt P01903+P01911); type: binding
[8] = target: DRB4*0101 (Homo sapiens, UniProt P01903+P13762, G164S); type: binding
[9] = target: DRB1*1101 (Homo sapiens, UniProt P01903+P01911, A100R/A169T/A87E/I96F/K41T/L162R/M171V/P40S/Q125H/Q178H/Q39Y/Q99D/R42S/S66Y/T262R/V115G/W38E)
[10] = target: DRB5*0101 (Homo sapiens, UniProt P01903+Q30154); conditions: Binding affinity DRB5 *0101
[11] = target: DR4w4 (DRB1*0401) (Homo sapiens, UniProt P01903+P01911, A100K/A169T/F76Y/I96L/K127E/L162R/M171V/N62H/P40V/Q125Y/R42H/S133A/S149N/S66Y/V115G/V209L/W38E); type: binding

DRB1*1101, sequence (P01903 26-254 limits assumed, other chains not shown): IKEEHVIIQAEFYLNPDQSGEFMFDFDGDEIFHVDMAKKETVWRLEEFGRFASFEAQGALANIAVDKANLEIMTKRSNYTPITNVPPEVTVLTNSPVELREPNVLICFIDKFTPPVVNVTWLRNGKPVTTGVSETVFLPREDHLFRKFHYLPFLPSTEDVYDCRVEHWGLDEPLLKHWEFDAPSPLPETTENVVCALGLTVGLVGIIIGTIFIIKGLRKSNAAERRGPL
DRB1*1302, sequence (P01903 26-254 limits assumed, other chains not shown): as above

Compound | pIC50 [1] | pIC50 [2] | pIC50 [3] | pIC50 [4] | pIC50 [5] | pIC50 [6] | pIC50 [7] | pIC50 [8] | pIC50 ([9]; Binding affinity DRB1 *1101) | pIC50 [10] | pIC50 [11] | pIC50 [9]
CC(C)[C@H](NC(=O)[C@H](CO)NC(=O)[C@@H](NC(=O)[C@@H](N)[C@@H](C)O)C(C)C)C(=O)NCC(=O)N[C@H](C(=O)N[C@@H](C)C(=O)N[C@@H](CCCCN)C(=O)N[C@H](C(=O)N[C@@H](Cc1ccc(O)cc1)C(=O)NCC(=O)N[C@@H](CCC(N)=O)C(=O)N[C@H](C(=O)N[C@@H](CO)C(=O)N[C@@H](C)C(=O)O)[C@@H](C)O)[C@@H](C)O)[C@@H](C)O [Peptide 89.0163] | < 4.70 | < 4.70 | 5.63 | < 4.70 | < 4.70 | < 4.70 | 5.06 | 6.64 | < 4.70 | < 4.70 | – | –
CC(C)C[C@H](NC(=O)[C@H](CC(C)C)NC(=O)[C@@H]1CCCN1C(=O)[C@@H](N)CC(N)=O)C(=O)NCC(=O)N[C@@H](C)C(=O)N[C@@H](C)C(=O)N[C@H](C(=O)N1CCC[C@H]1C(=O)N[C@H](C(=O)NCC(=O)N[C@@H](CC(N)=O)C(=O)N[C@@H](CC(N)=O)C(=O)N[C@@H](CCCCN)C(=O)N[C@@H](CCCNC(=N)N)C(=O)O)[C@@H](C)O)[C@@H](C)O [Peptide 89.0165] | 6.18 | < 4.70 | 5.08 | < 4.70 | 5.03 | < 4.70 | – | – | < 4.70 | < 4.70 | 5.91 | –
CSCC[C@H](NC(=O)[C@H](Cc1ccc(O)cc1)NC(=O)[C@H](Cc1ccc(O)cc1)NC(=O)[C@@H](NC(=O)[C@H](CO)NC(=O)[C@H](CC(=O)O)NC(=O)[C@H](Cc1c[nH]c2ccccc12)NC(=O)[C@H](C)NC(=O)[C@@H](N)C(C)C)C(C)C)C(=O)N[C@H](C(=O)N[C@@H](CC(=O)O)C(=O)N[C@@H](C)C(=O)NCC(=O)N[C@H](C(=O)N[C@@H](Cc1c[nH]c2ccccc12)C(=O)O)[C@@H](C)O)[C@@H](C)O [Peptide 1601.10] | 5.10 | – | 5.13 | < 4.70 | 6.23 | < 4.70 | < 4.70 | – | < 4.70 | < 4.70 | 5.78 | –
DCKWGVLILALLRYK [Peptide 89.0026] | – | 5.13 | 5.87 | 5.74 | 6.00 | 6.10 | 6.39 | – | 6.41 | 5.95 | 5.96 | –
DSDIAYYYAQLADSN [Peptide 89.0071] | 6.70 | 5.38 | 5.22 | – | 5.63 | < 4.70 | 7.89 | 6.01 | 5.04 | < 4.70 | – | –
DWCIIGMGVTPSVAE [Peptide 89.0096] | < 4.70 | 5.58 | < 4.70 | < 4.70 | < 4.70 | 5.36 | 5.08 | 6.72 | < 4.70 | < 4.70 | – | –
FAGIVTKLPTANNTT [Peptide 89.0175] | – | 5.89 | 5.23 | 5.81 | < 4.70 | – | 5.59 | 5.92 | 5.12 | – | – | –
FIHFIQGAVISFVNS [Peptide 89.0036] | – | – | 5.91 | 5.47 | 6.86 | 7.01 | 6.17 | 6.89 | 5.36 | 5.22 | – | –
FLSYFKLFLQGTPKH [Peptide 89.0132] | < 4.70 | < 4.70 | 5.11 | < 4.70 | – | 5.89 | < 4.70 | 8.06 | < 4.70 | < 4.70 | – | –
GQVIVFPESVFSSDE [Peptide 89.0173] | – | < 4.70 | < 4.70 | 5.67 | < 4.70 | < 4.70 | < 4.70 | < 4.70 | < 4.70 | < 4.70 | – | –
LIRMECALLYTAKQM [Peptide 89.0179] | 6.00 | 5.13 | < 4.70 | < 4.70 | < 4.70 | < 4.70 | < 4.70 | < 4.70 | < 4.70 | < 4.70 | – | –
LMQLKCPPLLITSNI [Peptide 89.0057] | 6.67 | – | 5.83 | 5.55 | 5.29 | 6.91 | 6.80 | 7.17 | – | < 4.70 | – | –
MVQVEEQQTTLSCNG [Peptide 89.0040] | – | < 4.70 | < 4.70 | < 4.70 | < 4.70 | < 4.70 | < 4.70 | – | < 4.70 | < 4.70 | 6.47 | –
NCILLYGPANTGKSY [Peptide 89.0087] | 6.96 | < 4.70 | 5.13 | 4.87 | < 4.70 | – | 7.18 | – | 5.09 | 5.19 | 6.55 | –
NGWFYVEAVVEKKTG [Peptide 90.0029] | 6.66 | 6.51 | 7.57 | 5.19 | 6.02 | 5.26 | < 4.70 | – | 5.56 | – | 7.51 | –
NTEVETQQMVQQVES [Peptide 89.0059] | < 4.70 | < 4.70 | < 4.70 | < 4.70 | < 4.70 | – | < 4.70 | – | < 4.70 | < 4.70 | < 4.70 | –
NTEVETQQMVQVEEQ [Peptide 89.0039] | 5.58 | < 4.70 | < 4.70 | – | < 4.70 | < 4.70 | < 4.70 | – | < 4.70 | < 4.70 | < 4.70 | –
PEWIEQQTVLQHSFD [Peptide 89.0105] | – | 5.21 | 5.25 | – | – | 5.88 | 4.95 | 6.01 | – | – | – | –
PMAVSKAKACQAIEL [Peptide 90.0013] | 7.05 | – | < 4.70 | – | – | 6.27 | 4.78 | 5.80 | 5.81 | 4.89 | – | –
PMCMMIEPPKLRSTA [Peptide 90.0034] | 7.43 | 6.43 | 5.68 | 5.36 | 4.95 | 5.80 | 5.48 | – | 5.69 | 6.57 | 6.44 | –
PPLLITTNINPMLDA [Peptide 89.0139] | 5.91 | 5.12 | 5.47 | 5.12 | < 4.70 | < 4.70 | 5.32 | – | – | – | 6.21 | 5.13
RLTVSKLMSQLLNIP [89,0100] | 4.98 | – | < 4.70 | – | – | – | – | – | – | – | < 4.70 | –
TNCMLIQPPKLRSTA [89,0046] | 7.77 | – | 5.49 | – | – | – | – | – | – | – | 5.73 | –
TPEWIDRLTVLQHSF [Peptide 89.0069] | 4.84 | 5.28 | 6.01 | 6.56 | < 4.70 | 5.05 | 5.42 | 6.91 | – | < 4.70 | – | –
WCIIGMGVTPSVAEG [Peptide 89.0097] | < 4.70 | 5.45 | < 4.70 | < 4.70 | < 4.70 | 5.68 | < 4.70 | – | < 4.70 | < 4.70 | < 4.70 | –
YLVCGERGFFYTKPT [Peptide 9000.0079] | – | – | < 4.52 | < 4.26 | – | – | – | – | – | – | < 4.69 | –
